In US12569468B2, “Use of palovarotene in treatment against HBV virus” (YANG SHENG TANG COMPANY, LTD., priority 2020, dated 2026):

How the values were obtained:
[1] = test system: HBV; experiment: Therapeutic effect on HepG2-hNTCP 2B1 infected by HBV (drug from day 6 after infection); assay type: cell-based, hepatitis B virus; settings: drug treatment from 6 days after HBV infection to day 12, Palovarotene at high concentrations (p<0.05), ETV 1 μM, vs blank group
Procedure: This experiment was carried out in a 24-well culture plate. […] About 1.5×10^5 HepG2-hNTCP 2B1 cells were plated in each well, and 500 μL of medium B was added to each well. After the cells adhered, medium A was used for replacement to perform the induction with Doxycycline during the whole experiment.
4 Days after the induction with Doxycycline, HBV infection was performed, and the amount of HBV in each well was 100 MOI. Before infection, HBV was diluted in medium C to obtain HBV solution, and the infection volume was 250 μL per well. During infection, the cell supernatant was first removed by suction, the HBV solution was added to the cells, and the cells were incubated for 24 hours, then the supernatant was collected as the sample of Day 0. Then the cells were washed three times with PBS, and fresh medium C was used for replacement. After that, the supernatant was collected every two days for detection, fresh medium C was used for replacement. On the 6th day, fresh drug-containing medium A was used for replacement to start drug treatment, then the supernatant was collected every two days for detection, and fresh drug-containing medium A was used for replacement, until the 12th day, all the supernatant and cells were collected for relevant detection. The detection items included HBsAg, HBeAg, HBV DNA, HBV cccDNA, and for the detection method, please refer to Example 1.

[2] = test system: HBV cccDNA; experiment: Southern blot detection of HBV cccDNA in infected HepG2-hNTCP 2B1; assay type: cell-based, hepatitis B virus; settings: 5 μM, day 6 to day 12 after infection, compared with interferon IFNα 500 IU control group and blank group
Procedure: Southern blot experiment was carried out on a 10 cm^2 culture plate. About 5×10^6 HepG2-hNTCP 2B1 cells were plated in each 10 cm^2 culture plate, and medium B was added. After the cells adhered, medium A was used for replacement to perform the induction with Doxycycline during the whole experiment. HBV infection was performed 4 days after the induction with Doxycycline, and the amount of HBV for infection was 1000 MOI. Before infection, HBV was diluted in medium C to obtain HBV solution, and the infection volume was 5 mL. During infection, the cell supernatant was first removed by suction, the HBV solution was added to the cells, the cells were incubated for 24 hours, then the supernatant was collected as the sample of Day 0. Then the cells were washed three times with PBS, and fresh medium A was used for replacement. After that, the supernatant was collected every two days for detection, fresh medium A was used for replacement. […]

[3] = test system: HepaRG M14a; experiment: Safety assessment, CCK-8 cell activity, HepaRG M14a; assay type: cell-based; settings: 1 μM, 5 μM and 25 μM, 6 days treatment
Procedure: (§1) This experiment was carried out in a 96-well culture plate, with 8×10^4 corresponding cells plated in each well, and the corresponding medium volume was 100 μL, in which each drug to be tested in the HepG2-hNTCP 2B1, HepaRG M14A and primary hepatocyte experimental groups had three final concentrations of 1 μM, 5 μM and 25 μM, each drug to be tested in the HepAD38 cell experimental group had two final concentrations of 1 μM and 5 μM (the drug was diluted with the corresponding medium to the final concentrations, specifically please refer to Example 1, Example 2, Example 4 and Example 5), and to the blank group the same volume of culture medium without drug was added. After the cells had grown to a suitable density, drug was added to perform treatment for 6 days, during which, the medium was changed every two days with fresh drug-containing medium. After the drug treatment, 110 μL of medium containing Beyotime CCK-8 cell activity detection reagent (purchased from Beyotime, Art. No. C0038) (the volume ratio of medium to CCK-8 reagent was 100:10) was used for replacement, the cells were incubated at 37° C. for 30 min, and then all the supernatant was collected for detection of absorbance. The absorbance value was read on PHOMO microplate reader purchased from Zhengzhou Autobio.

[4] = test system: human primary hepatocytes; experiment: Safety assessment, CCK-8 cell activity, human primary hepatocytes; assay type: cell-based; settings: 1 μM, 5 μM and 25 μM, 6 days treatment
Procedure: as §1

SMILES: CC1(C)CCC(C)(C)c2cc(Cn3cccn3)c(/C=C/c3ccc(C(=O)O)cc3)cc21 [Palovarotene]
- HBeAg [1]: significant inhibitory effect
- level of HBV DNA [1]: significantly reduce
- level of HBV cccDNA [1]: significantly reduce
- level of HBV cccDNA (Southern blot) [2]: significantly lower
- CCK-8 absorbance value (cell activity) vs blank group [3]: not significantly different
- CCK-8 absorbance value (cell activity) vs blank group [4]: not significantly different
